Assay results published in patent US20250249001A1, “METHODS OF TREATING SUBSTANCE USE DISORDER WITH 4-(3-CYANOPHENYL)-6-PYRIDINYLPYRIMIDINE MGLU5 NEGATIVE ALLOSTERIC MODULATORS” (Tempero Bio, Inc., priority 2022, published 2025).
Read-outs that look alike come from different tables or passages of the source.

Columns and labels:
[1] = test system: cocaine reinstatement in rats; assay: Yohimbine-induced reinstatement of cocaine self-administration (Stage II); format: in vivo, Sprague-Dawley rats; settings: for cocaine reinstatement, Mean Diff., Last Day of Cocaine Retraining vs treatment - Yohimbine / cocaine reinstatement, Mean Diff., Last Day of Extinction vs. treatment - Yohimbine / cocaine reinstatement, Mean Diff., Saline - Yohimbine 2 mg/kg vs. treatment - Yohimbine: 3 mg/kg, thirty min before yohimbine 2 mg/kg
Protocol: After completion of Stage I, the rats were re-trained with cocaine for one week to ensure stable baseline. And then the rats underwent a 6-day extinction training procedure in which only saline infusion occurred when active lever was pressed. Meanwhile, the rats were divided into 3 roughly even groups for pharmacological stressor-induced reinstatement—All rats received one injection of alpha-2 adrenergic antagonist yohimbine (2 mg/kg) and then placed into the training box immediately). Thirty min before yohimbine treatment, one group of rats received saline, another group received MTEP 3 mg/kg injection, and the 3rd group received Compound 1 at 3 mg/kg.
Yohimbine-induced reinstatement was re-tested two more times in the same rats 3 days and 6 days after the first test, under continuous extinction procedure (There were 2 more days of extinction training between the 1st and 2nd reinstatement test, and between the 2nd and 3rd reinstatement test). Using the 3×3 within subject design, each given animal goes through all three treatments (saline, MTEP and Compound 1) across the three rounds of test.
A one-way mixed-effects model (REML) of ANOVA followed by Dunnett's post hoc tests were used to analyze efficacy of Compound 1 and MTEP on cocaine self-administration in stages I (The repeated measure ANOVA was not totally applicable due to a few outlier data points, which are removed), and one-way mixed-effects model (REML) of ANOVA followed by Tukey's post hoc tests were used in Stage II. An effect was considered significant if P<0.05. Data were represented as the mean and standard error to the mean (s.e.m).
Statistical outliers which exceeded mean +/− (2× standard deviation) of the group were removed from the analysis. Also, for reinstatement, the extinction time was shortened (from 9 days plus extension as option to 6 days). In the present study, 3 rounds of reinstatement tests were performed, and we wished to maintain the reinstatement power, thus we cut extinction duration. Accordingly, we loosened the extinction criterion from 6 or less infusions to 9 or less infusions during the last extinction session. With this criterion, 17 out of 21 rats were eligible in drug test in Stage II.

[2] = test system: oxycodone self-administration in rats; assay: Intravenous oxycodone self-administration, fixed ratio FR3; format: in vivo, Sprague-Dawley rats; settings: for oxycodone self-administration, Mean Diff., Vehicle vs. treatment: FR3
Protocol: Animals. Adult male Sprague-Dawley rats (300-325 g at arrival) from Envigo (Indiana, USA) were used. Upon arrival, rats were single housed in standard cages with filter tops, and they were acclimated for at least 7 days before any treatment. All rats were examined and handled prior to initiation of the study. During the study, 12 h/12 h light/dark cycles were maintained. The room temperature was 21-23° C. with a relative humidity maintained at 30-70%. Water was provided ad libitum for the duration of the study.
Test Article(s) • Oxycodone (0.05 mg/kg/infusion; Sigma-Aldrich, USA) was dissolved in saline and infused at a rate of 0.1 ml/infusion. • Compound 1 (0.3, 1, and 3 mg/kg) was formulated in 10% Solutol HS15+90% (10% aqueous hydroxypropyl)-β-cyclodextrin and injected IP 30 minutes prior to test at a dose volume of 2 ml/kg. In the reinstatement study only 3 mg/kg was used. • MTEP (3-((2-Methyl-4-thiazolyl)ethynyl)pyridine; 3 mg/kg), was dissolved in saline and injected IP 30 minutes prior to testing at a dose volume of 2 ml/kg.
Apparatus. Intravenous drug self-administration took place in experimental chambers within sound-attenuating cubicles equipped with an exhaust fan (Med Associates, VT). Each chamber contains two response levers situated on one wall of the chamber. A stimulus light was located above each lever and a house light was located at the top of the opposite wall. A pellet receptacle was situated between the two levers for delivery of food pellets (Bio-Serv's Dustless Precision Pellets #F0165, 45 mg). An infusion pump mounted above each chamber delivers drug solutions via Tygon tubing connected to a single channel fluid swivel, which was mounted on a balance arm above the operant chamber. The output of the liquid swivel was attached to the externalized terminus of the intravenous catheter.
Surgery and catheter maintenance: The rats were first implanted with jugular vein catheters (Access Technologies, USA). After the surgery, catheters were flushed daily with 0.2 ml of heparin-Enrofloxacin solution to avoid clogging and to ensure smooth drug infusion. The flushing liquid was made in 50 ml volume units which contained 1500 U Heparin and 320 mg Enrofloxacin (Baytril®). The solution was stored in sterilized vials in a 4° C. refrigerator. After the rats recovered from catheterization surgery, they were food-restricted (about 15 or 20 g/day) and maintained at ˜85% of their free-feeding, age-matched control body weight throughout the study. Starting from the 3rd day of food restriction, rats were trained to press the active lever (one of the two levers) to obtain food. During the study, Methohexital sodium (Brevital®, Henry Schein Animal Health, USA) was used twice for catheter evaluation and thereby for indirect infusion confirmation. Brevital is a short-acting barbiturate that, when infused through the catheter, produces overt signs of sedation within seconds. […] The rats were first implanted with jugular vein catheters (Access Technologies, USA). After the surgery, catheters were flushed daily with 0.2 ml of heparin-Enrofloxacin solution to avoid clogging and to ensure smooth drug infusion. The flushing liquid was made in 50 ml volume units which contained 1500 U Heparin and 320 mg Enrofloxacin (Baytril®). The solution was stored in sterilized vials in a 4° C. refrigerator. After the rats recovered from catheterization surgery, they were food-restricted (about 15 or 20 g/day) and maintained at ˜85% of their free-feeding, age-matched control body weight throughout the study. Starting from the 3rd day of food restriction, rats were trained to press the active lever (one of the two levers) to obtain food. During the study, Methohexital sodium (Brevital®, Henry Schein Animal Health, USA) was used a few times for catheter evaluation and thereby for indirect infusion confirmation. Brevital is a short-acting barbiturate that, when infused through the catheter, produces overt signs of sedation within seconds. […]

[3] = test system: cocaine self-administration in rats
[4] = 3 mg/kg IP 30 minutes prior to test
[5] = 3 mg/kg IP, FR5, 1 hour session

Structure (SMILES) | cocaine reinstatement, Mean Diff., Last Day of Cocaine Retraining vs treatment - Yohimbine [1] | cocaine reinstatement, Mean Diff., Last Day of Extinction vs. treatment - Yohimbine [1] | cocaine reinstatement, Mean Diff., Saline - Yohimbine 2 mg/kg vs. treatment - Yohimbine [1] | cocaine reinstatement, Mean Diff., MTEP 3 mg/kg - Yohimbine vs. Compound 1 (3 mg/kg) - Yohimbine ([1]; both 3 mg/kg before yohimbine 2 mg/kg) | oxycodone self-administration, Mean Diff., Vehicle vs. treatment ([2]; 0.3 mg/kg IP 30 minutes prior to test) | oxycodone self-administration, Mean Diff., Vehicle vs. treatment ([2]; 1 mg/kg IP 30 minutes prior to test) | oxycodone self-administration, Mean Diff., Vehicle vs. treatment [2, 4] | oxycodone self-administration vs vehicle ([2]; all three doses, 0.3, 1 and 3 mg/kg IP) | cocaine self-administration, Mean Diff., Saline vs. treatment ([3]; 1 mg/kg IP 30 min before testing, FR5) | cocaine self-administration, Mean Diff., Saline vs. treatment [3, 5] | cocaine self-administration, Mean Diff., Saline vs. treatment ([3]; 10 mg/kg IP 30 min before testing, FR5) | cocaine self-administration vs saline treatment ([3]; all three doses, 1, 3 and 10 mg/kg IP) | self-administered oxycodone infusion vs vehicle treatment ([2]; 3 mg/kg IP) | cocaine infusion vs saline treatment ([3]; 3 mg/kg IP)
N#Cc1cc(Cl)cc(-c2cc(-c3ccc(F)cn3)ncn2)c1 [Compound 1, 3-chloro-5-[6-(5-fluoropyridin-2-yl)pyrimidin-4-yl]benzonitrile] | 26.57 | 5.749 | 20.28 | −0.1333 | 5.438 | 6.283 | 9.483 | significantly attenuated oxycodone self-administration | 15.73 | 24.3 | 27.07 | significantly attenuate cocaine self-administration |  | 
Cc1nc(C#Cc2cccnc2)cs1 [MTEP, 3-((2-Methyl-4-thiazolyl)ethynyl)pyridine] | 26.71 | 5.882 | 20.41 |  |  |  | 7.188 |  |  | 19.93 |  |  | significantly decreased self-administered oxycodone infusion | significantly decreased cocaine infusion
